Series [1] can be described thus: Clearance in healthy human at 250 mg, iv administered as single dose as 1 hr iv infusion. The series is classed as ADME, organism-based. Conditions: in vivo.
Series [2] can be described thus: Tmax in healthy human at 250 mg, iv administered as single dose as 1 hr iv infusion. The series is classed as ADME, organism-based. The settings on record: in vivo.
For series [3], the system named is Homo sapiens. Description: Toxicity in healthy human assessed as occurrence of headache at 1000 mg, iv administered as single dose as 1 hr iv infusion. The series is classed as organism-based. Conditions: in vivo.
Series [4] can be described thus: Renal clearance in healthy human at 1000 mg, iv administered as 1 hr infusion every 8 hrs for 10 days measured on day 10. Conditions: in vivo, read-out: CL_renal. The series is classed as ADME, organism-based, Kidney.
A short description of series [5]: Renal clearance in healthy human at 500 mg, iv administered as single dose as 1 hr iv infusion. The series is classed as ADME, organism-based, Kidney. The settings on record: in vivo, read-out: CL_renal.
Series [6] concerns Homo sapiens. As to the kind of experiment: Toxicity in healthy human assessed as occurrence of abdominal pain at 1000 mg, iv administered as single dose as 1 hr iv infusion. The series is classed as organism-based, Abdomen. Conditions: in vivo.
The test system of series [7] is Homo sapiens. As to the kind of experiment: Toxicity in healthy human assessed as occurrence of hypoaesthesia at 500 mg, iv administered as 1 hr infusion every 8 hrs for 10 days. The series is classed as organism-based. The settings on record: in vivo.
The nature of series [8]: Volume of distribution at steady state in healthy human at 1000 mg, iv administered as single dose as 1 hr iv infusion. The series is classed as ADME, organism-based. The settings on record: in vivo.
Series [9] can be described thus: Renal clearance in healthy human at 1000 mg, iv administered as 1 hr infusion every 8 hrs for 10 days measured on day 1. The settings on record: in vivo, read-out: CL_renal. The series is classed as ADME, organism-based, Kidney.
Series [10] is described as follows: Half-life in plasma of healthy human 500 mg administered as single ascending dose, iv for 1 hr infusion. The series is classed as ADME, organism-based.
Series [11] in a line: Cmax in healthy human at 1000 mg, iv administered as 1 hr infusion every 8 hrs for 10 days measured on day 10. The series is classed as ADME, organism-based. On the set-up: dose 1000 mg, route intravenous. The settings on record: in vivo.
Series [12] in a line: Drug recovery in urine of healthy human at 500 mg, iv administered as 1 hr infusion every 8 hrs for 10 days measured on day 1. The series is classed as ADME, organism-based. Conditions: read-out: Activity.
The nature of series [13]: Volume of distribution at steady state in healthy human at 500 mg, iv administered as 1 hr infusion every 8 hrs for 10 days measured on day 1. The series is classed as ADME, organism-based. The settings on record: in vivo.
Series [14] can be described thus: AUC (0 to infinity) in healthy human at 250 mg, iv administered as single dose as 1 hr iv infusion. The series is classed as ADME, organism-based. On the set-up: dose 250 mg, route intravenous, time infinity. The settings on record: plasma.
A short description of series [15]: AUC (0 to infinity) in healthy human at 1000 mg, iv administered as 1 hr infusion every 8 hrs for 10 days measured on day 1. The series is classed as ADME, organism-based. Details: dose 1000 mg, time infinity, route intravenous. The settings on record: plasma.

Results on one molecule are retold here after ChEMBL document CHEMBL1275247, “Pharmacokinetics and safety of CXA-101, a new antipseudomonal cephalosporin, in healthy adult male and female subjects receiving single- and multiple-dose intravenous infusions” (Antimicrob Agents Chemother, 2010).

In the case of `Cn1c(N)c(NC(=O)NCCN)c[n+]1CC1=C(C(=O)O)N2C(=O)[C@@H](NC(=O)/C(=N\OC(C)(C)C(=O)[O-])c3nsc(N)n3)[C@H]2SC1` [CEFTOLOZANE], the clearance in [1] was 104 mL/min. For the same molecule, the Tmax in series [2] came to 1.03 h. Further, the Activity entry in series [3], in [6] and in series [7] was “Non-toxic” each time. Also, the values for the CL renal in series [4] and in series [9] were 111 mL/min and 112 mL/min, respectively. In addition, in series [5], the CL renal at 1 h worked out at 90.4 mL/min. Moreover, the Vd in series [8] was 16.3 L; in [13], 13.8 L. In series [10], this molecule showed a half-life of 2.34 h. Besides, the peak level in [11] (Cmax) was 58 µg/mL. Also, the dose excreted at 1 day in series [12] was determined as 82.9%. Moreover, the figures for the AUC(0-inf) in series [14] and in series [15] were 40100 ng·h/mL and 149000 ng·h/mL, respectively.

A word on the clearance: it is a measure of how efficiently the substance is removed, as volume per time. One may read the Tmax as the time at which the peak concentration occurs. Broadly, the Vd is the apparent volume that relates the amount in the body to the concentration in plasma or blood. A lower Vd goes with confinement near the circulation. A word on the half-life: it is the time needed for the level to fall by half in the phase considered. Higher therefore signals slow decline. The term Cmax denotes the peak of the concentration-time curve. By AUC(0-inf) is commonly meant the area under the concentration-time curve extrapolated to infinity. Low values mean low exposure, high ones high exposure.
